The values below come from US6509367B1 (priority 2001, dated 2003).

Usually Ki stands for the dissociation constant of the complex between target and ligand, obtained from inhibition or displacement. A high value points to lower affinity.

SMILES strings stand for the structures. “Also recorded” adds a separate entry of the source. Where only a bound is given, the exact number is not on record here.

Assay [1] has as its system mice. The assay can be described thus: Rectal temperature (hypothermia) in mice, compound alone (agonism test). It is filed as in vivo. The conditions noted are these: Mus musculus, iv. As to the method:
(§1) Male ICR mice (25-32 g), purchased from Harlan (Dublin, Va.), were housed in groups of five. All animals were kept in a temperature-controlled (20-22° C.) environment with a 12-hour light-dark cycle (lights on at 7 a.m.). Separate mice were used for testing each drug dose in the in vivo behavioral procedures. The mice were maintained on a […] light: dark cycle, and received food and water ad libitum. Brain tissue for binding studies was obtained from male Sprague-Dawley rats (150-200 g) purchased from Harlan Laboratories (Dublin, Va.).
(§2) Measurement of spontaneous activity in mice occurred in standard activity chambers interfaced with a Digiscan Animal Activity Monitor (Omnitech Electronics, Inc., Columbus, Ohio). A standard tail-flick apparatus (described by Dewey et al., 1970) and a digital thermometer (Fisher Scientific, Pittsburgh, Pa.) were used to measure antinociception and rectal temperature, respectively.
(§3) All drugs were administered to the mice intravenously (i.v.) in the tail vein at a volume of 0.1 ml/10 g.
(§4) Maximum latency of 10 sec was used.

In assay [2] the test system is mice. The assay can be described thus: Antagonism tests with 3 mg/kg Δ^9-THC, stated across the measures (locomotor, antinociception, hypothermia).
The test system of assay [3] is mice. The assay can be described thus: Tail-flick antinociception in mice, compound alone (agonism test). The note with it: Mus musculus, iv. It is filed as in vivo. As to the method: as §1, §2, §3, §4
Assay [4] deals with mice. The assay can be described thus: Spontaneous (locomotor) activity in mice, compound alone (agonism test). The note with it: for ED50: mice, i.v.; for inhibition in vivo at 30 mg/kg: read-out: Max % inhibit of spontaneous locomotor activity, Compound Alone; for change in vivo at 3 mg/kg: at 3 mg/kg i.v.; for stimulation of locomotor activity: compound alone, dose not given (see Table 5). It is filed as in vivo. As to the method:
as §1, §2, §3, §4

In assay [5] the test system is mice. The assay is described as follows: Spontaneous activity in mice, compound in combination with 3 mg/kg Δ^9-THC (antagonism test). Format: in vivo. The note with it: for SA: maximum % antagonism of 3 mg/kg Δ^9-THC: analog 10 min before Δ^9-THC. Here is the method: as §1, §2, §3, §4
For assay [6], the target named is CB1 receptor (Rattus norvegicus, UniProt P20272). The assay can be described thus: biochemical. It is filed as binding. The conditions noted are these: for Ki: Ki (nM), 1 nM [3H] CP 55,940, rat whole brain P2 membranes, 30° C. for 1 hr. Here is the method: as §1
Sequence of CB1 receptor (P20272 whole entry): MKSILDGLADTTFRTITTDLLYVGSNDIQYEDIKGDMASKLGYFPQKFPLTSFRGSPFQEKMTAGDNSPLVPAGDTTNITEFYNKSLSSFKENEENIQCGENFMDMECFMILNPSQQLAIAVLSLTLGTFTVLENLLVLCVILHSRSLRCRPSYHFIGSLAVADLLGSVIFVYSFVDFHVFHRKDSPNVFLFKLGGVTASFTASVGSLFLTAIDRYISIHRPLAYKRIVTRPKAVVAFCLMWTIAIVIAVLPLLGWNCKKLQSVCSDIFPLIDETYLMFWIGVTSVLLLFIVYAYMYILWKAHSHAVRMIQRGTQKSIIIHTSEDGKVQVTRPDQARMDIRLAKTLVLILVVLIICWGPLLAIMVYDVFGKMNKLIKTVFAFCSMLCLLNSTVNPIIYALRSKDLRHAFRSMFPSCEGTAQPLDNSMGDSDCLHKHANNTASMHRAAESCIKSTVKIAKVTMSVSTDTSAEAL
All assays, as described briefly below, were performed in triplicate, and the results represent the combined data from three to six individual experiments. Following decapitation and rapid removal of the brain, whole brain was homogenized and centrifuged. The resulting pellet was termed P1. The supernatant was saved and combined with the two subsequent supernatants obtained from washing of the P1 pellet. The combined supernatant fractions were centrifuged, resulting in the P2 pellet. After further incubation and centrifuging, this pellet was resuspended in assay buffer to a protein concentration of approximately 2 mg/ml. The membrane preparation was quickly frozen in a bath solution of dry ice and 2-methylbutane (Sigma Chemical Co., St. Louis, Mo.), then stored at −80° C. for no more than 2 weeks. […] Binding was initiated by the addition of 150 μg of P2 membrane to test tubes containing 1 nM of [3H] […] Following incubation at 30° C. for 1 hr, binding was terminated by addition of ice-cold buffer and vacuum filtration through pretreated filters in a 12-well sampling manifold (Millipore, Bedford, Mass.). After washing, filters were placed into plastic scintillation vials (Packard, Downer Grove, Ill.) and shaken. The quantity of radioactivity present was determined by liquid scintillation spectrometry.

For assay [7], the system named is mice. The assay is described as follows: Agonism tests in mice, stated across the triad (spontaneous activity, tail flick, rectal temperature). The conditions noted are these: compound alone, i.v. doses up to 30 mg/kg.
Assay [8] relates to mice. The assay is described as follows: Rectal temperature in mice, compound in combination with 3 mg/kg Δ^9-THC (antagonism test). It is filed as in vivo. As to the method:
as §1, §2, §3, §4

Assay [9] deals with mice. The assay is described as follows: Tail-flick antinociception in mice, compound in combination with 3 mg/kg Δ^9-THC (antagonism test). Format: in vivo. Here is the method: as §1, §2, §3, §4
Setting [10] is: read-out: RT: > dose, 50% activity not achieved at this highest dose tested.
The mark [11] stands for this setting: read-out: TF: > dose, 50% activity not achieved at this highest dose tested.
The mark [12] stands for this setting: Mus musculus, iv, read-out: SA: > dose, 50% activity not achieved at this highest dose tested.
Setting [13] is: 0.5 h, i.v., 30 min post-injection, 95% confidence limits in parentheses, read-out: RT (rectal temperature) ED50.
[14] abbreviates: 20 min, i.v., 20 min post-injection, 95% confidence limits in parentheses, * = estimated ED50, dose-effect curve not linear, read-out: TF (tail flick, % MPE) ED50.
The mark [15] stands for this setting: Mus musculus, iv, at 30 mg/kg i.v.
Where [16] appears, read: Mus musculus, iv, 95% confidence limits in parentheses, * = estimated ED50, dose-effect curve not linear, read-out: SA (suppression of spontaneous activity) ED50.
[17] abbreviates: at the dose(s) [mg/kg] given in parentheses in the cell.
The mark [18] stands for this setting: Mus musculus, iv, read-out: Max stim of spontaneous locomotor activity, Compound Alone.

Regarding `CCC(C)c1ccc(-n2nc(C(=O)NN3CCCCC3)c(C)c2-c2ccc(Cl)cc2)cc1` (centres unmarked) [Compound O-1253], the ED50 in assay [1] (setting [10]), in assay [3] (setting [11]) and in assay [4] (setting [12]) was above 30 mg/kg throughout. In addition, the “antagonism of the antinociceptive and hypothermic effects of Δ^9-THC (in words)” value in assay [2] (3 mg/kg Δ^9-THC i.v.) is on record as “full, dose-dependent antagonism”. The change in vivo at 30 mg/kg in assay [4] (Mus musculus, iv, at 30 mg/kg i.v., read-out: Max stim of spontaneous locomotor activity, Compound Alone) is 73%. For the same compound, in assay [4] (doses in mg/kg), the “Max % inhibit of spontaneous locomotor activity, Compound Alone (in words: stimulation instead of inhibition)” value was “stim at 1, 3, 10 & 30”. Also, the “Max % inhibit of spontaneous locomotor activity, Compound with 3 mg/kg Δ^9-THC” value (shortened to “Max % inhibit … with 3 mg/kg Δ^9-THC”) in assay [5] (at 0.1 mg/kg i.v.) was 89% (0.1). Besides, the “SA: maximum % antagonism of 3 mg/kg Δ^9-THC” value in assay [5] (at 1 mg/kg i.v.) was 97% (1). In assay [5] (at 10 mg/kg i.v.), the “Max stim of spontaneous locomotor activity, Compound with 3 mg/kg Δ^9-THC” value is 50% (10). For the same compound, the Ki in [6] turned out to be 47 ± 2 nM. In assay [6] (compared to SR 141716A), the “CB1 binding affinity, fold less than SR 141716A” value was found to be 8 fold.

Take `CCCCCNC(=O)c1nn(-c2ccc(Cl)cc2Cl)c(-c2ccc(Cl)cc2)c1C` [Compound O-1269, N-(n-pentyl)-5-(4-chlorophenyl)-1-(2,4-dichlorophenyl)-4-methyl-1H-pyrazole-3-carboxamide]: the ED50 was 11 µmol/kg in assay [1] (setting [13]), 21 µmol/kg in assay [3] (setting [14]) and 11 µmol/kg in assay [4] (setting [16]). Also, in assay [7], the “in vivo cannabinoid agonist activity (in words)” value is “agonist activity”. Moreover, the change in vivo at 1 mg/kg in assay [4] (Mus musculus, iv, at 1 mg/kg i.v., read-out: Max stim of spontaneous locomotor activity, Compound Alone) amounted to 7%. Moreover, the inhibition in vivo at 30 mg/kg in [4] (setting [15]) is 87%. Moreover, the “SA: maximum % antagonism of 3 mg/kg Δ^9-THC” value in assay [5] (at 3 mg/kg i.v.) was 38% (3). For the same compound, in assay [5] (at 10 mg/kg i.v.), the “Max % inhibit … with 3 mg/kg Δ^9-THC” value is recorded as 91% (10). Also, the “Max stim of spontaneous locomotor activity, Compound with 3 mg/kg Δ^9-THC (in words)” value (shortened to “Max stim … with 3 mg/kg Δ^9-THC (in words)”) in [5] (setting [17]) was “None (1, 3 & 10)”. In assay [8] (at 1 mg/kg i.v.), the “RT: maximum % antagonism of 3 mg/kg Δ^9-THC” value is 43% (1). The compound further displayed a Ki in assay [6] of 32 ± 5 nM. In addition, the “% MPE: maximum % antagonism of 3 mg/kg Δ^9-THC” value (“% MPE … of 3 mg/kg Δ^9-THC” below) in assay [9] (at 3 mg/kg i.v.) is on record as 66% (3).

As for `CCCCCCCNC(=O)c1nn(-c2ccc(Cl)cc2Cl)c(-c2ccc(Cl)cc2)c1C` [Compound O-1270, N-(n-heptyl)-5-(4-chlorophenyl)-1-(2,4-dichlorophenyl)-4-methyl-1H-pyrazole-3-carboxamide], the ED50 was 12 µmol/kg in assay [1] (setting [13]), 20 µmol/kg in assay [3] (setting [14]) and 27 µmol/kg in assay [4] (setting [16]). In assay [7], the “in vivo cannabinoid agonist activity (in words)” value is given as “agonist activity”. The change in vivo at 3 mg/kg in assay [4] (setting [18]) is 29%. Further, in assay [4] (setting [15]), the inhibition in vivo at 30 mg/kg was found to be 80%. The “stimulation of locomotor activity” value in [4] came to 29%. The “Max % inhibit … with 3 mg/kg Δ^9-THC” value in assay [5] (at 10 mg/kg i.v.) was 87% (10). The “Max stim … with 3 mg/kg Δ^9-THC (in words)” value in [5] (setting [17]) was “None (10)”. The “SA: maximum % antagonism of 3 mg/kg Δ^9-THC (in words)” value in [5] (setting [17]) is given as “None (10)”. Further, in [8] (at 1 mg/kg i.v.), the “RT: maximum % antagonism of 3 mg/kg Δ^9-THC” value was 26% (1). Also, in assay [6], the inhibition constant (Ki) was 48 ± 12 nM. Moreover, in assay [9] (at 3 mg/kg i.v.), the “% MPE … of 3 mg/kg Δ^9-THC” value was 37% (3).

As to `CCCCCC(=O)c1nn(-c2ccc(Cl)cc2Cl)c(-c2ccc(Cl)cc2)c1C` [Compound O-1271], the ED50 in [1] (setting [10]), in assay [3] (setting [11]) and in [4] (setting [12]) was above 30 mg/kg in each case. Moreover, in [2] (in combination with 3 mg/kg Δ^9-THC i.v.), the “average % antagonism across the three measures” value is given as 59%. The “in vivo cannabinoid agonist activity (in words)” value in [7] is on record as “eliminated in vivo cannabimimetic activity; also recorded: did not have agonist properties”. In assay [4] (setting [18]), the change in vivo at 3 mg/kg came out at 54%. Besides, the inhibition in vivo at 30 mg/kg in assay [4] (setting [15]) was determined as 7%. The “stimulation of locomotor activity” value in [4] is reported as 54%. In addition, in [5] (at 3 mg/kg i.v.), the “Max % inhibit … with 3 mg/kg Δ^9-THC” value is listed as 58% (3). In addition, the “SA: maximum % antagonism of 3 mg/kg Δ^9-THC” value in [5] (at 10 mg/kg i.v.) is listed as 77% (10). The “Max stim … with 3 mg/kg Δ^9-THC (in words)” value in [5] (setting [17]) is given as “None (3 & 10)”. Besides, the “RT: maximum % antagonism of 3 mg/kg Δ^9-THC” value in [8] (at 3 mg/kg i.v.) was 36% (3). In addition, the Ki in assay [6] was 82 ± 10 nM. In assay [9] (at 10 mg/kg i.v.), the “% MPE … of 3 mg/kg Δ^9-THC” value is recorded as 65% (10).
